Entries after “also recorded” stand apart in the source; their conditions may differ. Where two headings read alike, the source gives them in different places. Values belong to the molecule of their own block, whether it stands above or below them.
Columns and labels:
[1] = system: anti-αGal IgG and IgM antibodies; assay: In vitro mouse laminin ELISA: soluble oligosaccharides as neutralizers of anti-αGal antibodies; assay type: binding; details: serum pre-incubated with oligosaccharide 1 hour 37° C.; result in words
Excerpt: In vitro laminin ELISA evaluation of αGal oligosaccharides as neutralizers of anti-αGal antibodies. Mouse laminin is a basement membrane glycoprotein that expresses 50-70 oligosaccharides terminating in Galα1-3Gal, i.e., the αGal motif (Arumugham et al., 1986, Biochem. Biophys. Aeta 883:112). In this assay, immobilization of mouse laminin on microtiter plates serves as a capture ligand for anti-αGal antibodies. […] The example provides a method by which to determine the ability of αGal oligosaccharides and pharmaceutically acceptable derivative of the invention to bind to anti-αGal antibodies and to thereby remove these antibodies from the serum, neutralize anti-αGal antibodies, and/or target anti-αGal directed complement-mediated lytic attack to specific tissue or cell types. The example also provides a method by which the effectiveness of the methods of the invention can be evaluated and dosages determined.
Sera were mixed with serial dilutions of αGal oligosaccharides (αGal-CHO) at 37° C. for 1 hour, then added to mouse laminin-coated microtiter plates and incubated for 1 hour to allow binding. The microtiter plates were coated with 20 μg/mL mouse laminin in 50 mM NaHCO3 buffer, pH 9.5 at 4° C. overnight, blocked with SuperBlock solution (Pierce) for 2 hours, and then washed 3 times with SuperBlock solution. After washing excess serum away, bound IgG and IgM was measured by adding goat anti-human IgG (or IgM) conjugated to alkaline phosphatase and incubating for 1 hour, washing, and adding substrate (pNPP).

pig kidney cells, PK-15 = assay: In vitro cytotoxicity of human sera on PK-15 monolayers; assay type: cell-based; details: sera of individual humans; result in words
Method: Sera were incubated with serial dilutions of αGal oligosaccharides at 37° C. for 1 hour, then added to αGal-expressing monolayers (pig kidney cells, PK-15) in Terasaki plates for 1 hour at 37° C. Cytotoxicity was mediated by either endogenous complement, or the sera were de-complemented (heat inactivated for 30 minutes at 56° C.) and exogenous (rabbit) complement was added. After washing away excess serum, the viable dye mix "live-dead" (calcein AM/ethidium homodimer (Molecular Probes Inc., Eugene Oreg.)) was added and monolayers were scored for viability by fluorescence microscopy.

anti-αGal antibody [2] = details: Neethling et al., 1996; cited from earlier work
anti-αGal antibody [3] = assay: In vivo blood serum analysis: serum anti-αGal antibody neutralizing capacity in baboons; design: species or system baboon; details: monovalent oligosaccharide
Excerpt: Pharmokinetics of αGal trisaccharides and αGal pentasaccharides in baboons. This example presents a study of the pharmokinetic profile and serum anti-αGal antibody neutralizing capacity in baboons of αGal trisaccharides and αGal pentasaccharides and previews the compounds' suitability for use in the prevention of hyperacute rejection of porcine organs xenotransplanted into baboons.
(§1) Three Baboons were outfitted with indwelling venous and arterial catheters to the femoral vessels, and held in place with the aid of a jacket. Oligosaccharides were administered through the catheter in a 15 minute continuous infusion.

[4] = Pharmacokinetics after 15 minute intravenous bolus in baboons; assay type: in vivo, baboon; details: for clearance / half-life / Vd: baboon, plasma, iv, 500 umol/kg, 0.5 mMol/Kg 15 minute i.v. bolus; for Vd: read-out: Volume of Distribution
Method: The pharmacokinetics of the αGal trisaccharide compositions and the αGal pentasaccharide compositions were determined by delivering to one baboon by 15 minute intravenous bolus, 0.5 mMol/Kg of one oligosaccharide and 48 hours later, delivering 0.5 mmol/Kg of the second oligosaccharide, and for a second baboon, delivering the oligosaccharides according to the same procedure, but in the reverse order.
as §1
The clearance is used to calculate the infusion rate needed to maintain a desired drug concentration. The half-life describes how quickly concentrations diminish with time. Mathematical formulations known in the art were applied to estimate the pharmacokinetic parameters of the αGal trisaccharide and αGal pentasaccharide. […] Compared to other drugs, the volumes of distribution of these oligosaccharides are low, less than the extravascular water volume (<400 mL/kg). The clearance is typical of compounds eliminated by GFR (glomerular filtration rate).

hyperacute rejection = details: cited from earlier work
[5] = system: anti-αGal antibodies (serum IgG and IgM); assay: In vitro immobilized αGal pentasaccharide glycinamide ELISA; assay type: binding; details: baboon serum pre-incubated with oligosaccharide 1 hour 37° C.; result in words
Excerpt: In vitro immobilized αGal oligosaccharide ELISA analysis evaluation of anti-αGal antibody titer and of αGal oligosaccharides as neutralizers of anti-αGal antibodies. This example provides an assay that may be applied to determine the ability of αGal oligosaccharides and pharmaceutically acceptable derivative of the invention to bind to anti-αGal antibodies and to thereby remove these antibodies from the serum or plasma, neutralize anti-αGal antibodies, and/or target complement-mediated lytic attack to specific tissue or cell types. Such an ELISA is additionally useful in clinical monitoring of anti-αGal antibodies in blood of patients in advance of, and following xenotransplantation of organs from animals that express the αGal epitope.
The derivative of the αGal pentasaccharide (αGal pentasaccharide glycinamide) was synthesized and immobilized on N-oxysuccinimide microtiter plates (Costar) (0.5 mg/ml αGal pentasaccharide glycinamide) in bicarbonate buffer, pH 9.0, overnight at 4° C.; the plate was blocked first for 1 hour with 1M ethanolamine in the same buffer and secondly with phosphate buffered saline, pH 7.4, containing 1% bovine serum albumin and 0.05% Tween 20 and 0.02% NaN3 or PBNT. PBNT was used for all three subsequent plate washes and as a diluent for the antibodies. […] The optical density at 405 nm was recorded.

[6] = to attain 0.5 mM steady state serum concentration
[7] = to attain 1.0 mM steady state serum concentration
[8] = to attain 2.0 mM steady state serum concentration

Structure (SMILES): CC(=O)N[C@H]1C(O)O[C@H](CO)[C@@H](O[C@@H]2O[C@H](CO)[C@H](O)[C@H](O[C@H]3O[C@H](CO)[C@H](O)[C@H](O)[C@H]3O)[C@H]2O)[C@@H]1O (some centres unmarked) [αGal trisaccharide, Galα1-3Galβ1-4GlcNAc]
Inhibition of serum cytotoxicity toward PK-15 cells (pig kidney cells, PK-15): slightly better inhibitor of cytotoxicity than αGal pentasaccharide; also recorded: inhibited slightly better by the αGal trisaccharide than by the αGal pentasaccharide
Neutralization of anti-αGal antibody in vitro, in words (anti-αGal antibody [2]): effective in neutralizing the anti-αGal antibody in vitro
Relative effectiveness in neutralizing anti-αGal antibody in vitro (anti-αGal antibody [2]): ten times more effective than the αGal disaccharide
Minimal serum (circulating) concentration required to inhibit hyperacute rejection / be efficacious in vivo (anti-αGal antibody [3]): ≥ 1 mM
Inhibition of anti-αGal IgG and IgM antibody binding to immobilized mouse laminin [1]: slightly better inhibitor of IgG (FIG. 1A) and IgM (FIG. 1B) binding to laminin than αGal pentasaccharide
clearance ([4]; baboon 1003): 4.18 mL/min/kg
half-life ([4]; baboon 1003): 46.8 min
Vd ([4]; baboon 1003): 0.288 L/kg
clearance ([4]; baboon 1015): 4.88 mL/min/kg
half-life ([4]; baboon 1015): 51.5 min
Vd ([4]; baboon 1015): 0.362 L/kg
Calculated continuous infusion, total amount [4, 6]: 1.04 Kg/14 days
Calculated loading dose [4, 6]: 3.82 g/20 Kg baboon
Calculated loading dose (bolus or 15 min infusion) [4, 6]: 191 mg/kg
Calculated continuous infusion, total amount [4, 7]: 2.08 Kg/14 days
Calculated loading dose [4, 7]: 7.64 g/20 Kg baboon
Calculated loading dose (bolus or 15 min infusion) [4, 7]: 382 mg/kg
Calculated continuous infusion, total amount [4, 8]: 4.15 Kg/14 days
Calculated loading dose [4, 8]: 15.28 g/20 Kg baboon
Calculated loading dose (bolus or 15 min infusion) [4, 8]: 764 mg/kg

Structure (SMILES): OC[C@H]1O[C@H](O[C@H]2[C@@H](O)[C@@H](CO)OC(O)[C@@H]2O)[C@H](O)[C@@H](O)[C@H]1O (some centres unmarked) [αGal disaccharide, Galα1-3Gal]
Neutralization of anti-αGal antibody in vitro, in words (anti-αGal antibody [2]): effective in neutralizing the anti-αGal antibody in vitro

Structure (SMILES): OC[C@H]1O[C@H](OC[C@H]2OC(O)[C@H](O)[C@@H](O)[C@@H]2O)[C@H](O)[C@@H](O)[C@H]1O (some centres unmarked) [melibiose, Galα1-6Glu]
Prevention of hyperacute rejection on in vivo administration (hyperacute rejection; Ye et al., 1994): failed to prevent hyperacute rejection
Toxicity on in vivo administration (hyperacute rejection; necessary concentrations in pig/primate xenotransplantation): cytotoxic to other tissue; also recorded: proved highly toxic

Structure (SMILES): OC[C@H]1O[C@@H](O[C@@H]2[C@H](O)[C@@H](O)C(O)O[C@@H]2CO)[C@H](O)[C@@H](O)[C@H]1O (some centres unmarked) [Galβ1-4Gal]
Inhibition of serum IgG and IgM binding to immobilized αGal pentasaccharide glycinamide [5]: minimally
Inhibition of anti-αGal IgG and IgM antibody binding to immobilized mouse laminin [1]: do not inhibit antibody binding

The next lines start with the values.

Inhibition of anti-αGal IgG and IgM antibody binding to immobilized mouse laminin [1]: do not inhibit antibody binding
Structure (SMILES): CC(=O)N[C@H]1[C@H](O[C@H]2[C@@H](O)[C@@H](CO)O[C@@H](O[C@H]3[C@H](O)[C@@H](O)C(O)O[C@@H]3CO)[C@@H]2O)O[C@H](CO)[C@@H](O[C@@H]2O[C@H](CO)[C@H](O)[C@H](O)[C@H]2O)[C@@H]1O (some centres unmarked) [Galβ1-4GlcNAcβ1-3 Galβ1-4Glc]

Inhibition of anti-αGal IgG and IgM antibody binding to immobilized mouse laminin [1]: do not inhibit antibody binding
Structure (SMILES): OC[C@H]1O[C@@H](O[C@H]2[C@H](O)[C@@H](O)C(O)O[C@@H]2CO)[C@H](O)[C@@H](O)[C@H]1O (some centres unmarked) [lactose, galactoseβ1-4glucose]

Inhibition of serum IgG and IgM binding to immobilized αGal pentasaccharide glycinamide [5]: not inhibited
Inhibition of anti-αGal IgG and IgM antibody binding to immobilized mouse laminin [1]: do not inhibit antibody binding
Structure (SMILES): OC[C@H]1O[C@@](CO)(O[C@H]2O[C@H](CO)[C@@H](O)[C@H](O)[C@H]2O)[C@@H](O)[C@@H]1O [sucrose]

Reference: patent US6096725A, “Methods of using αGal oligosaccharides as immune system targeting agents” (Neose Technologies, Inc., priority 1997, dated 2000)
